Among the data in patent US9394311B2, “Triazolo compounds as PDE10 inhibitors” (Hoffmann-La Roche Inc., priority 2012, dated 2016) are IC50 values, retold here.

Chain of human PDE10A (Q9Y233 other isoform, or with tags, fused parts or gaps): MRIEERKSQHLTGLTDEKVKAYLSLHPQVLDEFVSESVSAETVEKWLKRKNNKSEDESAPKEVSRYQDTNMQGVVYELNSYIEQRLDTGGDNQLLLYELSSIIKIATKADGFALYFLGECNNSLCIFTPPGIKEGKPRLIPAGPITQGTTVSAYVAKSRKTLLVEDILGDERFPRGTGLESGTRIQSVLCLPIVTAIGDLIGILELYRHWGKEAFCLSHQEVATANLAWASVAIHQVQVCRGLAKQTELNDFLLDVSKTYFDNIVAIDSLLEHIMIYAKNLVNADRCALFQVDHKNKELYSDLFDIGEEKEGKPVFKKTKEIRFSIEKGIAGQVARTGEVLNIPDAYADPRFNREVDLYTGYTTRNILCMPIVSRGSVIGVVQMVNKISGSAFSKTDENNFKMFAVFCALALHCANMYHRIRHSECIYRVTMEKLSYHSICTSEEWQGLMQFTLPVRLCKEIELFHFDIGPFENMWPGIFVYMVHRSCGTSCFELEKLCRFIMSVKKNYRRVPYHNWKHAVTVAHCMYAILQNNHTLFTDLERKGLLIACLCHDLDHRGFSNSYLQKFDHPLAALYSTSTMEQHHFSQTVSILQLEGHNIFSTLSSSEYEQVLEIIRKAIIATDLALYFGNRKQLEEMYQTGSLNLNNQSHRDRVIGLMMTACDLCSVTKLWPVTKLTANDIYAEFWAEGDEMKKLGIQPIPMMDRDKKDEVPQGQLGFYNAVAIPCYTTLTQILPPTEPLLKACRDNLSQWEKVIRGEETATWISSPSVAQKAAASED

This experiment concerns the target human PDE10A (Homo sapiens (Human), UniProt Q9Y233). Put plainly: human PDE10A full length Scintillation Proximity Assay (SPA). It counts as biochemical. The note with it: PDE10A full length enzyme, 50 nM cGMP / [3H]-cGMP substrate, 20 minutes at room temperature. Here is the method:
The following test was carried out in order to determine the activity of the compounds of the present invention. PDE10 activity of the compounds of the present invention was determined using a Scintillation Proximity Assay (SPA)-based method similar to the one previously described (Fawcett, L. et al., Proc Natl Acad Sci USA (2000) 97(7):3702-3707).
The human PDE10A full length assay was performed in 96-well micro titer plates. The reaction mixture of 50 μl contained 20 mM HEPES pH=7.5/10 mM MgCl2/0.05 mg/ml BSA (Sigma cat. # A-7906), 50 nM cGMP (Sigma, cat. # G6129) and 50 nM [3H]-cGMP (GE Healthcare, cat. # TRK392 S.A. 13.2 Ci/mmol), 3.75 ng/well PDE10A enzyme (Enzo Life Science, Lausen, Switzerland cat # SE-534) with or without a specific test compound. A range of concentrations of the potential inhibitor was used to generate data for calculating the concentration of inhibitor resulting in 50% of the effect (e.g. IC50, the concentration of the competitor inhibiting PDE10A activity by 50%). Non-specific activity was tested without the enzyme. The reaction was initiated by the addition of the substrate solution (cGMP and [3H]-cGMP) and allowed to progress for 20 minutes at room temperature. The reaction was terminated by adding 25 μl of YSi-SPA scintillation beads (GE Healthcare, cat. # RPNQ0150) in 18 mM zinc sulphate solution (stop reagent). After 1 h under shaking, the plate was centrifuged one minute at 170 g to allow beads to settle. Afterwards, radioactive counts were measured on a Perkin Elmer Top-Count Scintillation plate reader.
For orientation: In a scintillation proximity assay essentially only radioactivity close to the scintillant gives light.
In turn, `Cc1ncc(C)n2nc(/C=C/c3nc(N(C)C4CC4)nn3C)nc12` [Example 11, Cyclopropyl-{5-[2-(5,8-dimethyl-[1,2,4]triazolo[1,5-a]pyrazin-2-yl)-vinyl]-1-methyl-1H-[1,2,4]triazol-3-yl}-methyl-amine] displayed an IC50 of 42.3 nM. As to `Cc1ncc(C)n2nc(CCc3nc(N4CCC[C@@H]4C(F)(F)F)nn3C)nc12` [Example 114, 5,8-Dimethyl-2-{2-[2-methyl-5-((R)-2-trifluoromethyl-pyrrolidin-1-yl)-2H-[1,2,4]triazol-3-yl]-ethyl}-[1,2,4]triazolo[1,5-a]pyrazine], the IC50 was determined as 34.2 nM. Molecule `Cc1cc(Cl)c(C)n2nc(/C=C/c3nc(N4CCCC4)n(C)n3)nc12` [Example 35, 6-Chloro-5,8-dimethyl-2-(2-(1-methyl-5-(pyrrolidin-1-yl)-1H-1,2,4-triazol-3-yl)vinyl)-[1,2,4]triazolo[1,5-a]pyridine] displayed a 50% inhibitory concentration (IC50) of 0.15 nM. The figure for `Cc1ccc(C)n2nc(CCc3nc(N4CCCC4)nn3C)nc12` [Example 37, 5,8-Dimethyl-2-(2-(1-methyl-3-(pyrrolidin-1-yl)-1H-1,2,4-triazol-5-yl)ethyl)-[1,2,4]triazolo[1,5-a]pyridine] is 4.21 nM; for `CCn1nc(N2CCCC2)nc1/C=C/c1nc2c(C)ncc(C)n2n1` [Example 1, 2-[2-(2-Ethyl-5-pyrrolidin-1-yl-2H-[1,2,4]triazol-3-yl)-vinyl]-5,8-dimethyl-[1,2,4]triazolo[1,5-a]pyrazine] it is 11.9 nM; for `Cn1nc(N2CCCC2)nc1CCc1nc2ccc3ccccc3n2n1` [Example 56, 2-(2-(1-Methyl-3-(pyrrolidin-1-yl)-1H-1,2,4-triazol-5-yl)ethyl)-[1,2,4]triazolo[1,5-a]quinoline] it is 29.2 nM. `Cc1c(Cl)cc(C(F)(F)F)c2nc(CCc3nc(N4CC[C@@H](F)C4)nn3C)nn12` [Example 127, (R)-6-Chloro-2-(2-(3-(3-fluoropyrrolidin-1-yl)-1-methyl-1H-1,2,4-triazol-5-yl)ethyl)-5-methyl-8-(trifluoromethyl)-[1,2,4]triazolo[1,5-a]pyridine]: the concentration for half-maximal inhibition (IC50) turned out to be 2.71 nM. Next, `Cc1cnc(C)n2nc(CCc3nc(N4CCC[C@@H]4C)nn3C)nc12` [Example 112, 5,8-Dimethyl-2-{2-[2-methyl-5-((S)-2-methyl-pyrrolidin-1-yl)-2H-[1,2,4]triazol-3-yl]-ethyl}-[1,2,4]triazolo[1,5-c]pyrimidine]: 9 nM; `Cc1cc(C)n2nc(/C=C/c3nc(N(C)C4CC4)nn3C)nc2n1` [Example 30, Cyclopropyl-{5-[2-(5,7-dimethyl-[1,2,4]triazolo[1,5-a]pyrimidin-2-yl)-vinyl]-1-methyl-1H-[1,2,4]triazol-3-yl}-methyl-amine]: 57.9 nM. The figure for `Cn1nc(N2CCCC2)nc1CCc1nc2c(Cl)cc(C(F)(F)F)cn2n1` [Example 54, 8-Chloro-2-(2-(1-methyl-3-(pyrrolidin-1-yl)-1H-1,2,4-triazol-5-yl)ethyl)-6-(trifluoromethyl)-[1,2,4]triazolo[1,5-a]pyridine] is 105 nM; for `CCn1nc(N2CCCC2)nc1CCc1nc2c(C)ncc(C)n2n1` [Example 2, 2-[2-(2-Ethyl-5-pyrrolidin-1-yl-2H-[1,2,4]triazol-3-yl)-ethyl]-5,8-dimethyl-[1,2,4]triazolo[1,5-a]pyrazine] it is 5.57 nM. The figure for `CCn1nc(C#Cc2nc3c(C)ncc(C)n3n2)nc1N1CCCC1` [Example 47, 2-((1-Ethyl-5-(pyrrolidin-1-yl)-1H-1,2,4-triazol-3-yl)ethynyl)-5,8-dimethyl-[1,2,4]triazolo[1,5-a]pyrazine] is 4.48 nM; for `Cc1c(Cl)cc(OCC(F)(F)F)c2nc(CCc3nc(N4CCCC4)nn3C)nn12` [Example 98, 6-Chloro-5-methyl-2-[2-(2-methyl-5-pyrrolidin-1-yl-2H-[1,2,4]triazol-3-yl)-ethyl]-8-(2,2,2-trifluoro-ethoxy)-[1,2,4]triazolo[1,5-c]pyridine] it is 0.51 nM. In the case of `Cc1ncc(C)n2nc(CCc3nc(N4CCCC4)nn3-c3ccccc3)nc12` [Example 109, 5,8-Dimethyl-2-[2-(2-phenyl-5-pyrrolidin-1-yl-2H-[1,2,4]triazol-3-yl)-ethyl]-[1,2,4]triazolo[1,5-a]pyrazine], the IC50 came to 0.29 nM. As for `Cc1c(Cl)cc(C(C)(C)O)c2nc(CCc3nc(N4CCCC4)nn3C)nn12` [Example 80, 2-{6-Chloro-5-methyl-2-[2-(2-methyl-5-pyrrolidin-1-yl-2H-[1,2,4]triazol-3-yl)-ethyl]-[1,2,4]triazolo[1,5-c]pyridin-8-yl}-propan-2-ol], the half-inhibitory concentration (IC50) turned out to be 76.3 nM. Next, `Cc1ncc(C)n2nc(C#Cc3nc(N4CCCC4)nn3C)nc12` [Example 108, 5,8-Dimethyl-2-(2-methyl-5-pyrrolidin-1-yl-2H-[1,2,4]triazol-3-ylethynyl)-[1,2,4]triazolo[1,5-a]pyrazine]: 0.8 nM. Regarding `Cc1c(Cl)cc(OC2CCOCC2)c2nc(CCc3nc(N4CCCC4)nn3C)nn12` [Example 120, 6-Chloro-5-methyl-2-(2-(1-methyl-3-(pyrrolidin-1-yl)-1H-1,2,4-triazol-5-yl)ethyl)-8-(tetrahydro-2H-pyran-4-yloxy)-[1,2,4]triazolo[1,5-a]pyridine], the IC50 is 0.36 nM. Next, `Cc1nc2ccc(Cl)cc2nc1C#Cc1nc(N2CCCC2)nn1C` [Example 136, 6-Chloro-2-methyl-3-(2-methyl-5-pyrrolidin-1-yl-2H-[1,2,4]triazol-3-ylethynyl)-quinoxaline]: 5.17 nM; `Cc1ncc(C)n2nc(CCc3nc(N4CC[C@@H](F)C4)nn3C)nc12` [Example 96, 2-{2-[5-((R)-3-Fluoro-pyrrolidin-1-yl)-2-methyl-2H-[1,2,4]triazol-3-yl]-ethyl}-5,8-dimethyl-[1,2,4]triazolo[1,5-a]pyrazine]: 10.7 nM; `Cc1ccn2nc(CCc3nc(N4CCCC4)n(C)n3)nc2c1C` [Example 32, 7,8-Dimethyl-2-(2-(1-methyl-5-(pyrrolidin-1-yl)-1H-1,2,4-triazol-3-yl)ethyl)-[1,2,4]triazolo[1,5-a]pyridine]: 7.23 nM. Next, `Cc1c(Cl)cc(C(F)(F)F)c2nc(CCc3nc(N4CCCC4)n[nH]3)nn12` [Example 128, 6-Chloro-5-methyl-2-(2-(3-(pyrrolidin-1-yl)-1H-1,2,4-triazol-5-yl)ethyl)-8-(trifluoromethyl)-[1,2,4]triazolo[1,5-a]pyridine]: 0.72 nM; `CCN(CC)c1nc(CCc2nc3c(C)ncc(C)n3n2)n(C)n1` [Example 59, {5-[2-(5,8-Dimethyl-[1,2,4]triazolo[1,5-a]pyrazin-2-yl)-ethyl]-1-methyl-1H-[1,2,4]triazol-3-yl}-diethyl-amine]: 50.6 nM. Next, `Cc1ncc(C)n2nc(CCc3nc(N4CCC5(CC5)C4)nn3C)nc12` [Example 92, 2-{2-[5-(5-Aza-spiro[2.4]hept-5-yl)-2-methyl-2H-[1,2,4]triazol-3-yl]-ethyl}-5,8-dimethyl-[1,2,4]triazolo[1,5-a]pyrazine]: 13.9 nM. On to `Cc1ncc(C)n2nc(CCc3nc(N4CCCC4=O)nn3C)nc12` [Example 87, 1-{5-[2-(5,8-Dimethyl-[1,2,4]triazolo[1,5-a]pyrazin-2-yl)-ethyl]-1-methyl-1H-[1,2,4]triazol-3-yl}-pyrrolidin-2-one], for which the midpoint of inhibition, the IC50, lay at 288 nM. This IC50 is about 21-fold higher than that of the molecule before.

In turn, `Cc1cc(C)n2nc(CCc3nc(N4CCCC4)nn3C)nc2n1` [Example 24, 5,7-dimethyl-2-(2-(1-methyl-3-(pyrrolidin-1-yl)-1H-1,2,4-triazol-5-yl)ethyl)-[1,2,4]triazolo[1,5-a]pyrimidine] registered an IC50 of 23.6 nM.

In turn, `Cc1c(Cl)cc(C(F)(F)F)c2nc(CCc3nc(N4CCC(F)(F)C4)nn3C)nn12` [Example 88, 6-Chloro-2-{2-[5-(3,3-difluoro-pyrrolidin-1-yl)-2-methyl-2H-[1,2,4]triazol-3-yl]-ethyl}-5-methyl-8-trifluoromethyl-[1,2,4]triazolo[1,5-c]pyridine] gave an IC50 of 9.78 nM. This IC50 is about 2.4-fold lower than that of the molecule before. Take `COC[C@H]1CCCN1c1nc(CCc2nc3c(C)ncc(C)n3n2)n(C)n1` [Example 124, 2-{2-[5-((R)-2-Methoxymethyl-pyrrolidin-1-yl)-2-methyl-2H-[1,2,4]triazol-3-yl]-ethyl}-5,8-dimethyl-[1,2,4]triazolo[1,5-a]pyrazine]: the IC50 stood at 14.1 nM. The IC50 values of the last two molecules are within 1.5-fold of each other.

The molecule `Cc1c(Cl)ccc2nc(CCc3nc(N4CCCC4)n(C)n3)nn12` [Example 28, 6-Chloro-5-methyl-2-[2-(1-methyl-5-pyrrolidin-1-yl-1H-[1,2,4]triazol-3-yl)-ethyl]-[1,2,4]triazolo[1,5-a]pyridine] registered an IC50 of 2.13 nM. This IC50 lies about 6.6-fold lower than the previous one. Regarding `Cc1c(Cl)cc(C(F)(F)F)c2nc(CCc3nc(N4CCCC4)nn3C)nn12` [Example 69, 6-Chloro-5-methyl-2-[2-(2-methyl-5-pyrrolidin-1-yl-2H-[1,2,4]triazol-3-yl)-ethyl]-8-trifluoromethyl-[1,2,4]triazolo[1,5-c]pyridine], the IC50 was found to be 0.5 nM.

A word on the IC50: it is the concentration needed to halve the response being measured. High values mean lower potency, low ones higher potency.
